Columns and labels:
IRAK4 [1] = target: T1, IRAK4 (Homo sapiens, UniProt Q9NWZ3); assay: IRAK4 Degradation Assay (Karpas299, HTRF/TR-FRET); assay type: cell-based; conditions: Karpas-299 cells
T1 construct: endogenous in cells; host or cells: Karpas299
T1 sequence (Q9NWZ3 1-460): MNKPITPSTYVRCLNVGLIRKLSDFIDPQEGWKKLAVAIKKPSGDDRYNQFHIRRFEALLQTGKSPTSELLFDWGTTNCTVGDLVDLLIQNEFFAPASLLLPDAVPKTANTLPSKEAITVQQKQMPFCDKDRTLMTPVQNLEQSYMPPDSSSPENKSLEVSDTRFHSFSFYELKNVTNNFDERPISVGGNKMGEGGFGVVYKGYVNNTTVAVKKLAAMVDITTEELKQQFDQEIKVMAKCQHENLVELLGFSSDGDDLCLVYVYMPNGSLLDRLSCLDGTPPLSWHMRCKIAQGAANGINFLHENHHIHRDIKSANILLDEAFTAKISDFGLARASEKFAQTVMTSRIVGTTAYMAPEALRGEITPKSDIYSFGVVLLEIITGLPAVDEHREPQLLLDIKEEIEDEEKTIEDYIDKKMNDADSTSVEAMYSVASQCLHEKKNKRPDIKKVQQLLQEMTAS
Summary of the method: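 Compound potency as DC50 (IC50) came from four-parameter fits of percent IRAK4 degradation. IRAK4 was measured by HTRF (665/620 nm) in lysates of Karpas299 cells seeded at 0.2 million per well. Cells had been treated with compound dilutions for 5 or 24 h.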

IRAK4 [2] = target: T1, IRAK4; assay: IRAK4 Degradation Assay with Human Serum (Karpas299, HTRF/TR-FRET); assay type: cell-based; conditions: Karpas-299 in human serum, 24 hrs treatment; for DC50: read-out: IRAK4 degradtion with human serum assay DC50; for Dmax: read-out: IRAK4 degradtion with human serum assay Dmax (%)
Method: IRAK4 degradation was measured using a TR-FRET-based method (Degorce, François, et al. Current chemical genomics. 2009, 3: 22). Karpas299 resuspended in Human serum AB (GEMINI, 100-512) were seeded into 96-well plates at the density of 0.2 million cells per well and then treated with a series dilution of compounds. After 24 hrs treatment, cells were pelleted via centrifugation and washed with PBS, add 40 μL lysis buffer (Cisbio) to each well after removal of the supernatant. Plates were then incubated at room temperature with shaking for 30 minutes. A total of 16 μL of cell lysates from each well of a 96-well plate was transferred to a 384-well white assay plate. IRAK4 level was quantitated using the HTRF kit as described by the manufacturer manual (Cisbio). FRET signals were measured using a PHERAstar FSX reader (BMG Labtech).
After treatment, add HTRF lysis buffer to each well; seal the plate and incubate 1 hour at room temperature on a plate shaker; Once the cells are lysed, 16 μL of cell lysate are transferred to a PE 384-well HTRF detection plate; 4 μL of pre-mixed HTRF antibodies are added to each well; Cover the plate with a plate sealer, spin 1000 rpm for 1 min, Incubate overnight at room temperature; Read on BMG PheraStar with HTRF protocol (337 nm-665 nm-620 nm).
The inhibition (degradation) percentage of the compound was calculated by the following equation: […]
The IC50 (DC50) value of a compound can be obtained by fitting the following equation
Wherein, X and Y are known values, and IC50, Hillslope, Top and Bottom are the parameters obtained by fitting with software. Y is the inhibition percentage (calculated from the equation), X is the concentration of the compound; IC50 is the concentration of the compound when the […] is reached. The smaller the IC50 value is, the stronger the inhibitory ability of the compound is. Vice versa, the higher the IC50 value is, the weaker the ability the inhibitory ability of the compound is; Hillslope represents the slope of the fitted curve, generally around 1 *; Bottom represents the minimum value of the curve obtained by data fitting, which is generally 0%±20%; Top represents the maximum value of the curve obtained by data fitting, which is generally 100%±20%. The experimental data were fitted by calculating and analyzing with Dotmatics data analysis software.

[3] = 24 h treatment, maximum percentage of degradation, read-out: IRAK4 in Karpas-299 (24 h) Dmax (%)
[4] = 24 h treatment, read-out: IRAK4 in Karpas-299 (24 h) DC50

Compound	Dmax (IRAK4 [1]; 5 h treatment, maximum percentage of degradation, read-out: IRAK4 in Karpas-299 (5 h) Dmax (%))	DC50 (IRAK4 [1]; 5 h treatment, read-out: IRAK4 in Karpas-299 (5 h) DC50)	Dmax (IRAK4 [1]; [3])	DC50 (IRAK4 [1]; [4])	DC50 (IRAK4 [2])	Dmax (IRAK4 [2])	IRAK4 in Karpas-299 (24 h) Dmax (%) (IRAK4 [1]; 24 h treatment, maximum percentage of degradation)	IRAK4 degradtion with human serum assay Dmax (%) (IRAK4 [2])
CC(C)(O)c1cc2nn(C3CCN(C4CCN(C(=O)C5CN(c6cc(F)c([C@H]7CCC(=O)NC7=O)c(F)c6)C5)CC4)CC3)cc2cc1NC(=O)c1ccc2cc(C#N)cnn12 [Example 346, (R)-3-cyano-N-(2-(1′-(1-(4-(2,6-dioxopiperidin-3-yl)-3,5-difluorophenyl)azetidine-3-carbonyl)-[1,4′-bipiperidin]-4-yl)-6-(2-hydroxypropan-2-yl)-2H-indazol-5-yl)pyrrolo[1,2-b]pyridazine-7-carboxamide]	93%	1.6 nM	97%	1.4 nM	5.5 nM	99%		
COC[C@H]1CN([C@H]2CC[C@H](n3cc4cc(NC(=O)c5ccc6cc(C#N)cnn56)c(C(C)(C)O)cc4n3)CC2)CCN1CC1CCN(c2ccc3c(c2)CN(C2CCC(=O)NC2=O)C3=O)CC1 (stereo partly drawn) [Example 402, 3-cyano-N-(2-((1R,4r)-4-((3R)-4-((1-(2-(2,6-dioxopiperidin-3-yl)-1-oxoisoindolin-5-yl)piperidin-4-yl)methyl)-3-(methoxymethyl)piperazin-1-yl)cyclohexyl)-6-(2-hydroxypropan-2-yl)-2H-indazol-5-yl)pyrrolo[1,2-b]pyridazine-7-carboxamide]			95%	0.9 nM	5.5 nM	87%		
COc1cc2nn([C@H]3CC[C@H](N4CCN(C(=O)C5CN(c6cc(F)c([C@H]7CCC(=O)NC7=O)c(F)c6)C5)CC4)CC3)cc2cc1C(=O)Nc1cnn2cccnc12 [Example 344, 2-((1r,4r)-4-(4-(1-(4-((R)-2,6-dioxopiperidin-3-yl)-3,5-difluorophenyl)azetidine-3-carbonyl)piperazin-1-yl)cyclohexyl)-6-methoxy-N-(pyrazolo[1,5-a]pyrimidin-3-yl)-2H-indazole-5-carboxamide]			98%	0.24 nM	2.7 nM	100%		
COC[C@H]1CN(C2CN(c3cc(F)c([C@H]4CCC(=O)NC4=O)c(F)c3)C2)CCN1[C@H]1CC[C@H](n2cc3cc(NC(=O)c4ccc5cc(C#N)cnn45)c(C(C)(C)O)cc3n2)CC1 [Example 323, 3-cyano-N-(2-((1R,4r)-4-((R)-4-(1-(4-((R)-2,6-dioxopiperidin-3-yl)-3,5-difluorophenyl)azetidin-3-yl)-2-(methoxymethyl)piperazin-1-yl)cyclohexyl)-6-(2-hydroxypropan-2-yl)-2H-indazol-5-yl)pyrrolo[1,2-b]pyridazine-7-carboxamide]			94%	2.1 nM	14 nM	98%		
COc1cc2nn([C@H]3CC[C@H](N4CCN(C5CCN(c6cc(F)c([C@H]7CCC(=O)NC7=O)c(F)c6)CC5)CC4)CC3)cc2cc1NC(=O)c1ccc2cc(C#N)cnn12 [Example 338, 3-cyano-N-(2-((1r,4r)-4-(4-(1-(4-((R)-2,6-dioxopiperidin-3-yl)-3,5-difluorophenyl)piperidin-4-yl)piperazin-1-yl)cyclohexyl)-6-methoxy-2H-indazol-5-yl)pyrrolo[1,2-b]pyridazine-7-carboxamide]			95%	1.1 nM	13 nM	92%		
Cn1c(=O)n(C2CCC(=O)NC2=O)c2cccc(CCCN3CCN(C45CC(n6cc7cc(NC(=O)c8ccc9cc(C#N)cnn89)c(C(C)(C)O)cc7n6)(C4)C5)CC3)c21 (stereo not shown) [Example 350, 3-cyano-N-(2-(3-(4-(3-(1-(2,6-dioxopiperidin-3-yl)-3-methyl-2-oxo-2,3-dihydro-1H-benzo[d]imidazol-4-yl)propyl)piperazin-1-yl)bicyclo[1.1.1]pentan-1-yl)-6-(2-hydroxypropan-2-yl)-2H-indazol-5-yl)pyrrolo[1,2-b]pyridazine-7-carboxamide]			89%	2.1 nM	16 nM	97%		
CC(C)(O)c1cc2nn([C@H]3C[C@H](N4CCN(C(=O)[C@@H]5CCN(c6cc(F)c([C@H]7CCC(=O)NC7=O)c(F)c6)C5)CC4)C3)cc2cc1NC(=O)c1ccc2cc(C#N)cnn12 [Example 329, 3-cyano-N-(2-((1R,3r)-3-(4-((R)-1-(4-((R)-2,6-dioxopiperidin-3-yl)-3,5-difluorophenyl)pyrrolidine-3-carbonyl)piperazin-1-yl)cyclobutyl)-6-(2-hydroxypropan-2-yl)-2H-indazol-5-yl)pyrrolo[1,2-b]pyridazine-7-carboxamide]				0.8 nM	19 nM		96%	98%
COc1cc2nn([C@H]3CC[C@H](N4CCN(C(=O)C5CN(c6cc(F)c([C@H]7CCC(=O)NC7=O)c(F)c6)C5)CC4)CC3)cc2cc1NC(=O)c1ccc2cc(C#N)cnn12 [Example 336, 3-cyano-N-(2-((1r,4r)-4-(4-(1-(4-((R)-2,6-dioxopiperidin-3-yl)-3,5-difluorophenyl)azetidine-3-carbonyl)piperazin-1-yl)cyclohexyl)-6-methoxy-2H-indazol-5-yl)pyrrolo[1,2-b]pyridazine-7-carboxamide]			100%	0.2 nM	13 nM	92%		
CC(C)(O)c1cc2nn(C34CC(N5CCN(C(=O)C6CN(c7cc(F)c([C@H]8CCC(=O)NC8=O)c(F)c7)C6)CC5)(C3)C4)cc2cc1NC(=O)c1ccc2cc(C#N)cnn12 [Example 157, (R)-3-cyano-N-(2-(3-(4-(1-(4-(2,6-dioxopiperidin-3-yl)-3,5-difluorophenyl)azetidine-3-carbonyl)piperazin-1-yl)bicyclo[1.1.1]pentan-1-yl)-6-(2-hydroxypropan-2-yl)-2H-indazol-5-yl)pyrrolo[1,2-b]pyridazine-7-carboxamide]			98%	0.4 nM	21 nM	99%		
COC[C@@H]1CN(C2CN(c3cc(F)c([C@H]4CCC(=O)NC4=O)c(F)c3)C2)CCN1[C@H]1CC[C@H](n2cc3cc(NC(=O)c4ccc5cc(C#N)cnn45)c(C(C)(C)O)cc3n2)CC1 [Example 327, 3-cyano-N-(2-((1S,4r)-4-((S)-4-(1-(4-((R)-2,6-dioxopiperidin-3-yl)-3,5-difluorophenyl)azetidin-3-yl)-2-(methoxymethyl)piperazin-1-yl)cyclohexyl)-6-(2-hydroxypropan-2-yl)-2H-indazol-5-yl)pyrrolo[1,2-b]pyridazine-7-carboxamide]			90%	0.9 nM	4.2 nM	95%		
CC(C)(O)c1cc2nn([C@H]3CC[C@H](N4CCN([C@H]5C[C@@H](c6ccc(N[C@@H]7CCC(=O)NC7=O)cc6)C5)CC4)CC3)cc2cc1NC(=O)c1ccc2cc(C#N)cnn12 [Example 271, 3-cyano-N-(2-((1R,4r)-4-(4-((1S,3S)-3-(4-(((R)-2,6-dioxopiperidin-3-yl)amino)phenyl)cyclobutyl)piperazin-1-yl)cyclohexyl)-6-(2-hydroxypropan-2-yl)-2H-indazol-5-yl)pyrrolo[1,2-b]pyridazine-7-carboxamide]			94%	4 nM	11 nM	101%		
